# Columns and labels:
# [1] = tested on: blackgrass (Alopecurus myosuroides); test: Test C plant response; format: in vivo; details: Preemergence, scale 0 to 100
# [2] = tested on: spring wheat (Triticum aestivum); test: Test C plant response; format: in vivo; details: Postemergence, scale 0 to 100
# Description: (§1) Seeds of plant species selected from bluegrass (annual bluegrass, Poa annua), blackgrass (Alopecurus myosuroides), canarygrass (Phalaris minor), chickweed (common chickweed, Stellaria media), galium (catchweed bedstraw, Galium aparine), bromegrass (downy bromegrass, Bromus tectorum), field poppy (Papaver rhoeas), field violet (Viola arvensis), green foxtail (Setaria viridis), deadnettle (henbit deadnettle, Lamium amplexicaule), Italian ryegrass (Lolium multiflorum), kochia (Kochia scoparia), lambsquarters (Chenopodium album), oilseed rape (Brassica napus), pigweed (Amaranthus retroflexus), Russian thistle (Salsola iberica), spring barley (Hordeum vulgare), spring wheat (Triticum aestivum), buckwheat (wild buckwheat, Polygonum convolvulus), wild mustard (Sinapis arvensis), wild oat (Avena fatua), wild radish (Raphanus raphanistrum), windgrass (Apera spica-venti), winter barley (Hordeum vulgare), and winter wheat (Triticum aestivum) were planted and treated postemergence with test chemicals formulated in a non-phytotoxic solvent mixture which included a surfactant. Plants ranged in height from 2 to 18 cm (1- to 4-leaf stage).
# (§2) Treated plants and controls were maintained in a controlled growth environment for 14 days after which time all test plants were visually evaluated and compared to controls. Plant response ratings, summarized in Table C, are based on a scale of 0 to 100 where 0 is no effect and 100 is complete control. A dash (-) response means no test result.
# [3] = tested on: Russian thistle (Salsola iberica); test: Test C plant response; format: in vivo; details: Postemergence, scale 0 to 100
# Description: as §1, §2
# [4] = tested on: green foxtail (Setaria viridis); test: Test C plant response; format: in vivo; details: Postemergence, scale 0 to 100
# Description: as §1, §2
# [5] = tested on: pigweed (Amaranthus retroflexus); test: Test C plant response; format: in vivo; details: Postemergence, scale 0 to 100
# Description: as §1, §2
# [6] = tested on: lambsquarters (Chenopodium album); test: Test C plant response; format: in vivo; details: Postemergence, scale 0 to 100
# Description: as §1, §2
# kochia (Kochia scoparia) = test: Test C plant response; format: in vivo; details: Preemergence, scale 0 to 100
# [7] = tested on: oilseed rape (Brassica napus); test: Test C plant response; format: in vivo; details: Preemergence, scale 0 to 100
# [8] = tested on: wild mustard (Sinapis arvensis); test: Test C plant response; format: in vivo; details: Preemergence, scale 0 to 100
# [9] = tested on: chickweed (common chickweed, Stellaria media); test: Test C plant response; format: in vivo; details: Preemergence, scale 0 to 100
# [10] = tested on: field violet (Viola arvensis); test: Test C plant response; format: in vivo; details: Preemergence, scale 0 to 100
# [11] = tested on: wild radish (Raphanus raphanistrum); test: Test C plant response; format: in vivo; details: Preemergence, scale 0 to 100
# [12] = tested on: pigweed (Amaranthus retroflexus); test: Test C plant response; format: in vivo; details: Preemergence, scale 0 to 100
# [13] = tested on: Italian ryegrass (Lolium multiflorum); test: Test C plant response; format: in vivo; details: Preemergence, scale 0 to 100
# [14] = tested on: Russian thistle (Salsola kali); test: Test B pre-/postemergence plant response; format: in vivo; details: Preemergence; for Russian Thistle plant response rating: 250 g ai/ha, 0 to 100 scale
# Procedure, shortened: (§3)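 Compound in solvent + surfactant applied pre-em (loam/sand) or post-em (plants 2–18 cm, peat medium); greenhouse hold 13–15 days; visual 0–100 control score.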
# [15] = tested on: deadnettle (henbit deadnettle, Lamium amplexicaule); test: Test B pre-/postemergence plant response; format: in vivo; details: Postemergence
# Procedure, shortened: as §3
# [16] = 62 g ai/ha, scale 0 to 100, 0 no effect, 100 complete control
# [17] = 125 g ai/ha, scale 0 to 100, 0 no effect, 100 complete control
# [18] = 31 g ai/ha, scale 0 to 100 (0 no effect, 100 complete control)
# [19] = 31 g ai/ha, 0 to 100 scale (0 no effect, 100 complete control)
# [20] = 125 g ai/ha, scale 0 to 100 (0 no effect, 100 complete control)
# [21] = 250 g ai/ha, scale 0 to 100 (0 no effect, 100 complete control), 13 to 15 days
smiles,measurement,setting,value
"O=C1CCCC(O)=C1C(=O)c1cnc(-c2ccccc2)n(-c2ccccc2)c1=O [Compound 2, 5-[(2-hydroxy-6-oxo-1-cyclohexen-1-yl)carbonyl]-2,3-diphenyl-4(3H)-pyrimidinone]",Plant response rating: Blackgrass,[1]; 62 g ai/ha,0
same,Plant response rating: Blackgrass,[1]; 125 g ai/ha,0
same,Plant response rating: Blackgrass,[1]; 16 g ai/ha,0
same,Plant response rating: Blackgrass,[1]; 31 g ai/ha,0
same,"Plant response rating: Wheat, Spring",[2]; 16 g ai/ha,0
same,"Plant response rating: Wheat, Spring",[2]; 31 g ai/ha,0
same,"Plant response rating: Wheat, Spring",[2]; 62 g ai/ha,0
same,"Plant response rating: Wheat, Spring",[2]; 125 g ai/ha,0
same,Plant response rating: Russian Thistle,[3]; 16 g ai/ha,35
same,Plant response rating: Russian Thistle,[3]; 31 g ai/ha,60
same,Plant response rating: Russian Thistle,[3]; 62 g ai/ha,70
same,Plant response rating: Russian Thistle,[3]; 125 g ai/ha,95
same,"Plant response rating: Foxtail, Green",[4]; 16 g ai/ha,65
same,"Plant response rating: Foxtail, Green",[4]; 31 g ai/ha,75
same,"Plant response rating: Foxtail, Green",[4]; 62 g ai/ha,95
same,"Plant response rating: Foxtail, Green",[4]; 125 g ai/ha,95
same,Plant response rating: Pigweed,[5]; 16 g ai/ha,35
same,Plant response rating: Pigweed,[5]; 31 g ai/ha,40
same,Plant response rating: Pigweed,[5]; 62 g ai/ha,75
same,Plant response rating: Pigweed,[5]; 125 g ai/ha,90
same,Plant response rating: Lambsquarters,[6]; 16 g ai/ha,70
same,Plant response rating: Lambsquarters,[6]; 31 g ai/ha,75
same,Plant response rating: Lambsquarters,[6]; 62 g ai/ha,80
same,Plant response rating: Lambsquarters,[6]; 125 g ai/ha,98
same,Plant response rating: Kochia,kochia (Kochia scoparia); 62 g ai/ha,30
same,Plant response rating: Kochia,kochia (Kochia scoparia); 125 g ai/ha,90
same,Plant response rating: Kochia,kochia (Kochia scoparia); 16 g ai/ha,5
same,Plant response rating: Kochia,kochia (Kochia scoparia); 31 g ai/ha,5
same,Plant response rating: Oilseed Rape,[7]; 62 g ai/ha,35
same,Plant response rating: Oilseed Rape,[7]; 125 g ai/ha,65
same,Plant response rating: Oilseed Rape,[7]; 16 g ai/ha,0
same,Plant response rating: Oilseed Rape,[7]; 31 g ai/ha,20
same,"Plant response rating: Mustard, Wild",[8]; 62 g ai/ha,5
same,"Plant response rating: Mustard, Wild",[8]; 125 g ai/ha,35
same,"Plant response rating: Mustard, Wild",[8]; 16 g ai/ha,0
same,"Plant response rating: Mustard, Wild",[8]; 31 g ai/ha,0
same,Plant response rating: Chickweed,[9]; 62 g ai/ha,98
same,Plant response rating: Chickweed,[9]; 125 g ai/ha,98
same,Plant response rating: Chickweed,[9]; 16 g ai/ha,75
same,Plant response rating: Chickweed,[9]; 31 g ai/ha,98
same,Plant response rating: Field Violet,[10]; 62 g ai/ha,0
same,Plant response rating: Field Violet,[10]; 125 g ai/ha,0
same,Plant response rating: Field Violet,[10]; 16 g ai/ha,0
same,Plant response rating: Field Violet,[10]; 31 g ai/ha,0
same,"Plant response rating: Radish, Wild",[11]; 62 g ai/ha,0
same,"Plant response rating: Radish, Wild",[11]; 125 g ai/ha,0
same,"Plant response rating: Radish, Wild",[11]; 16 g ai/ha,0
same,"Plant response rating: Radish, Wild",[11]; 31 g ai/ha,0
same,Plant response rating: Pigweed,[12]; 62 g ai/ha,65
same,Plant response rating: Pigweed,[12]; 125 g ai/ha,85
same,Plant response rating: Pigweed,[12]; 16 g ai/ha,0
same,Plant response rating: Pigweed,[12]; 31 g ai/ha,20
same,"Plant response rating: Ryegrass, Italian",[13]; 62 g ai/ha,0
same,"Plant response rating: Ryegrass, Italian",[13]; 125 g ai/ha,0
same,"Plant response rating: Ryegrass, Italian",[13]; 16 g ai/ha,0
same,"Plant response rating: Ryegrass, Italian",[13]; 31 g ai/ha,0
"Cc1c(F)cccc1-n1c(-c2ccccc2)ncc(C(=O)C2=C(O)CCCC2=O)c1=O [Compound 47, 3-(3-fluoro-2-methylphenyl)-5-[(2-hydroxy-6-oxo-1-cyclohexen-1-yl)carbonyl]-2-phenyl-4(3H)-pyrimidinone]",melting point,,168 to 169 °C
O=C1CCCC(O)=C1C(=O)c1cnc(-c2cccs2)n(-c2ccccc2)c1=O [Compound 66],"Plant response rating, Russian Thistle",[14]; [16],0
CC(C)Cc1ncc(C(=O)C2=C(O)CCCC2=O)c(=O)n1-c1ccccc1 [Compound 68],"Plant response rating, Russian Thistle",[14]; [17],80
O=C1CCCC(O)=C1C(=O)c1cnc(-c2cccc(Br)c2)n(-c2ccccc2)c1=O [Compound 69],"Plant response rating, Russian Thistle",[14]; [18],100
same,"Plant response rating, Russian Thistle",[14]; [16],100
same,"Plant response rating, Russian Thistle",[14]; [17],100
CCCc1ncc(C(=O)C2=C(O)CCCC2=O)c(=O)n1CCC [Compound 72],"Plant response rating, Russian Thistle",[14]; [18],0
same,"Plant response rating, Russian Thistle",[14]; [16],30
same,"Plant response rating, Russian Thistle",[14]; [17],80
"COCCCn1c(-c2ccccc2)ncc(C(=O)C2=C(O)CCCC2=O)c1=O [Compound 81, 5-[(2-hydroxy-6-oxo-cyclohexen-1-yl)carbonyl]-3-(3-methoxypropyl)-2-phenyl-4(3H)-pyrimidinone]",melting point,,121 to 122 °C
same,"Plant response rating, Russian Thistle",[14]; [18],100
same,"Plant response rating, Russian Thistle",[14]; [16],100
same,"Plant response rating, Russian Thistle",[14]; [17],100
same,Russian Thistle plant response rating,[14],100
O=C1CCCC(O)=C1C(=O)c1cnc(-c2ccsc2)n(C2CCOCC2)c1=O [Compound 186],"Plant response rating, Deadnettle",[15]; [19],90
same,"Plant response rating, Deadnettle",[15]; [20],100
same,"Plant response rating, Deadnettle",[15]; [21],100
CCCCn1c(C2CC2)ncc(C(=O)C2=C(O)CCCC2=O)c1=O [Compound 193],"Plant response rating, Russian Thistle",[14]; [18],90
same,"Plant response rating, Russian Thistle",[14]; [16],98
same,"Plant response rating, Russian Thistle",[14]; [17],100
same,Russian Thistle plant response rating,[14],100
same,"Plant response rating, Deadnettle",[15]; [19],100
same,"Plant response rating, Deadnettle",[15]; [20],100
same,"Plant response rating, Deadnettle",[15]; [21],100
same,"Plant response rating, Deadnettle","[15]; 62 g ai/ha, scale 0 to 100 (0 no effect, 100 complete control)",100

# From patent US8952024B2, “Herbicidal pyrimidone derivatives” (E I du Pont de Nemours and Company, priority 2009, dated 2015)
